The target in assay [1] is T1, N-type calcium channel (NTCC) (Homo sapiens, UniProt Q00975).
T1 construct: host or cells: IMR32 cells differentiated with dibutyryl cAMP and bromodeoxyuridine
The assay is described as follows: FLIPR calcium mobilization assay for N-type calcium channel. It is filed as cell-based. The conditions noted are these: calcium mobilization in vitro assay; differentiated IMR32 cells. The gist of the method:
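Differentiated IMR32 cells (8 days, dibutyryl cAMP and BrdU) loaded with 3 μM Fluo-4 during 90 mM KCl pre-stimulation, with compound at about 846 pM to 17 μM plus 5 μM nitrendipine. After washes in compound, FLIPR read basal fluorescence 315 s, then 45 s after KCl addition (final 90 mM).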
(Calcium flux is commonly read through the fluorescence of an indicator in the cells.)

Assay [2] concerns the target T2, recombinant rat L-type calcium channel (LTCC) subunits (α1c, α2δ, and β1) (Rattus norvegicus, UniProt P22002).
T2 construct: expressed in transfected cells
The assay is described as follows: FLIPR calcium mobilization assay for L-type calcium channel. The settings on record: calcium mobilization in vitro assay; HEK293 cells expressing rat LTCC. It counts as cell-based. The gist of the method: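 HEK293 cells stably expressing rat LTCC (α1c, α2δ, β1), Fluo-4 loaded in pH 7.4 buffer with 5 mM CaCl2. Compound (about 846 pM to 17 μM final) applied 5 minutes before depolarization with 90 mM KCl final; FLIPR fluorescence recorded throughout.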

Molecules are shown by their SMILES. A value given as a limit tells only on which side of the number the result lay.

As usually defined, the IC50 is the concentration needed to halve the response being measured.

T1 sequence (Q00975 whole entry): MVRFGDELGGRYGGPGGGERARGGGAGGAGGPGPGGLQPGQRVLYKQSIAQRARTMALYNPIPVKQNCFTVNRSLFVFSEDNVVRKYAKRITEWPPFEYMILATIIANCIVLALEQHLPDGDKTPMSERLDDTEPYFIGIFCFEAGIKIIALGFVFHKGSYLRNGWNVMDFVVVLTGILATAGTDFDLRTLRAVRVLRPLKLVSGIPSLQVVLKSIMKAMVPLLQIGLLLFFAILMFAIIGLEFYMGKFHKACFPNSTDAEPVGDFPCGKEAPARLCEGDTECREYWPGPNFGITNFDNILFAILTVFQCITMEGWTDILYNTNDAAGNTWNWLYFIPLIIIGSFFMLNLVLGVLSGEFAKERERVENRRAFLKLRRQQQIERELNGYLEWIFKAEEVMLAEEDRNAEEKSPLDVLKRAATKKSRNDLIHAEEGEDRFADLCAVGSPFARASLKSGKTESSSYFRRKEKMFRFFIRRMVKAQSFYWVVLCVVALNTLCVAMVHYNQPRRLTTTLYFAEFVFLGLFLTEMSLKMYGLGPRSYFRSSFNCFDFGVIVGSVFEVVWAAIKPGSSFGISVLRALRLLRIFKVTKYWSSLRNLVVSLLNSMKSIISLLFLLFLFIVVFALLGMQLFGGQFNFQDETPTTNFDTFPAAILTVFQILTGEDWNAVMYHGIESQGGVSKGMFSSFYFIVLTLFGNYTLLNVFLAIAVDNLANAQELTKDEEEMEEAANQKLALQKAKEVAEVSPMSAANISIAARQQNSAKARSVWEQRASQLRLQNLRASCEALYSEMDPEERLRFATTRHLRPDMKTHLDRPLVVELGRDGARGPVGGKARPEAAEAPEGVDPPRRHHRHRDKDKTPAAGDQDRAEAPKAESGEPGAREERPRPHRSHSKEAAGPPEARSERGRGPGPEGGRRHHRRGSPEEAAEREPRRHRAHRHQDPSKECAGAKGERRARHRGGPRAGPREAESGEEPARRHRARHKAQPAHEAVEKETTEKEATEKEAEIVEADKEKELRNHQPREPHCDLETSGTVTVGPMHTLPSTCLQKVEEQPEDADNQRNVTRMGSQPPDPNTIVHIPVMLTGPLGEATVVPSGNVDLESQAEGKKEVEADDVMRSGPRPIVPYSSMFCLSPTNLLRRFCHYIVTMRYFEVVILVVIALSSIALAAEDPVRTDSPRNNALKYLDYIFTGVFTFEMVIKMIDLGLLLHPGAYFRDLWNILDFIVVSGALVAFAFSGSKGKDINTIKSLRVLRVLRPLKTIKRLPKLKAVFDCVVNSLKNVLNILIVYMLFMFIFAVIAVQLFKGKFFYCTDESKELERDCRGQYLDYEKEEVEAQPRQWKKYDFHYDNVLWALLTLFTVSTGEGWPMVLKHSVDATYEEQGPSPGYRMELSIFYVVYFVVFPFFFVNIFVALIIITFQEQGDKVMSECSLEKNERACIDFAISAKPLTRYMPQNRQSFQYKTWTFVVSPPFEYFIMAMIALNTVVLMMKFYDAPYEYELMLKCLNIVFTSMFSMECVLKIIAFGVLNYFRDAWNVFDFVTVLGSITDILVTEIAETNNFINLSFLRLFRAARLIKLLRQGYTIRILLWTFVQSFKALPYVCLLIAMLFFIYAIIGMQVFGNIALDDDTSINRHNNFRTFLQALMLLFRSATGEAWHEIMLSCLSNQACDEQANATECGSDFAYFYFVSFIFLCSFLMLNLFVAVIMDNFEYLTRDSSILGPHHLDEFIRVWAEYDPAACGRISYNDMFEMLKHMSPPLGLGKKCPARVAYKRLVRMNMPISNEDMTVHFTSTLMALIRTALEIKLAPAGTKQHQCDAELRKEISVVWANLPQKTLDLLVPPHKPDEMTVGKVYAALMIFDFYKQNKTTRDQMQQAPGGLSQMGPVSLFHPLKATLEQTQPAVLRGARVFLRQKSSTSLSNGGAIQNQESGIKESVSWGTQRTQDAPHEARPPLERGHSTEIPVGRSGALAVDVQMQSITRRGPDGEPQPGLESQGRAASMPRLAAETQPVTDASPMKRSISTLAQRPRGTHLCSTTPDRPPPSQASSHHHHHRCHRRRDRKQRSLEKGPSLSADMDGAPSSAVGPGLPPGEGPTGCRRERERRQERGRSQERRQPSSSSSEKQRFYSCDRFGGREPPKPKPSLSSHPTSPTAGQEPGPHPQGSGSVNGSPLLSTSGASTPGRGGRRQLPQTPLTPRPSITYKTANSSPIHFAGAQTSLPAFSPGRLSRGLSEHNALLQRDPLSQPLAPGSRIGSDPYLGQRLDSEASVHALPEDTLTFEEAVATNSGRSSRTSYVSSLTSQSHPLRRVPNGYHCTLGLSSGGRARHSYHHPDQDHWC
T1 sequence (P54289 25-956 partner limits assumed): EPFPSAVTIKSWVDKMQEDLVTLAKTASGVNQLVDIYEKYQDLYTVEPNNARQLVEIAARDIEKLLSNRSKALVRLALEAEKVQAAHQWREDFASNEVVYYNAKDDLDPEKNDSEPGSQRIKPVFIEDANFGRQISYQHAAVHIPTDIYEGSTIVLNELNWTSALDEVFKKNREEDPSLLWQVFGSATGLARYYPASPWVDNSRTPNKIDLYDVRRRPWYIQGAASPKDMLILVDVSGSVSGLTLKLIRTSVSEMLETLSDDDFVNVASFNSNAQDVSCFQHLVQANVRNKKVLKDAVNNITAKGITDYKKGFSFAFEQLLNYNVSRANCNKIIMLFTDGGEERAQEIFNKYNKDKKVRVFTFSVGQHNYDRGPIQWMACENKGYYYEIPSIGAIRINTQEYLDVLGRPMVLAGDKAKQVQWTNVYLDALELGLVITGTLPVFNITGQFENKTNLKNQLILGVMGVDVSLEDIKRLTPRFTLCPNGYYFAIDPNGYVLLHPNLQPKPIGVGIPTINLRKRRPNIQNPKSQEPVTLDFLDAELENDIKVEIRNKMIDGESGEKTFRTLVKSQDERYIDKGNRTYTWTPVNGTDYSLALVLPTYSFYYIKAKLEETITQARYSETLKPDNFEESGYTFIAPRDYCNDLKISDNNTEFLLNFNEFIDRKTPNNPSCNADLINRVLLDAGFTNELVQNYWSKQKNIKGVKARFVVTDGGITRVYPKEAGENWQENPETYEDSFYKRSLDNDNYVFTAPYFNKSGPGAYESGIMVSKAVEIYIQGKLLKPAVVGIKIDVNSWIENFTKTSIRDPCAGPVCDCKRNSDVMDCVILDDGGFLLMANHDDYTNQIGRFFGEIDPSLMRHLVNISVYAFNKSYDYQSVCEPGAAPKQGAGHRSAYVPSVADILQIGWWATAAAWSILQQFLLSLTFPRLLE
T1 sequence (P54289 957-1103 partner limits assumed): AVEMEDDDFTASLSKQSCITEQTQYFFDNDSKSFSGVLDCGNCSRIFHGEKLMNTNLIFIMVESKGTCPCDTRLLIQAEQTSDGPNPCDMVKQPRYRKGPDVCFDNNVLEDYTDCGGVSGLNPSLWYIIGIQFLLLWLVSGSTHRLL
T1 sequence (P54284 whole entry partner): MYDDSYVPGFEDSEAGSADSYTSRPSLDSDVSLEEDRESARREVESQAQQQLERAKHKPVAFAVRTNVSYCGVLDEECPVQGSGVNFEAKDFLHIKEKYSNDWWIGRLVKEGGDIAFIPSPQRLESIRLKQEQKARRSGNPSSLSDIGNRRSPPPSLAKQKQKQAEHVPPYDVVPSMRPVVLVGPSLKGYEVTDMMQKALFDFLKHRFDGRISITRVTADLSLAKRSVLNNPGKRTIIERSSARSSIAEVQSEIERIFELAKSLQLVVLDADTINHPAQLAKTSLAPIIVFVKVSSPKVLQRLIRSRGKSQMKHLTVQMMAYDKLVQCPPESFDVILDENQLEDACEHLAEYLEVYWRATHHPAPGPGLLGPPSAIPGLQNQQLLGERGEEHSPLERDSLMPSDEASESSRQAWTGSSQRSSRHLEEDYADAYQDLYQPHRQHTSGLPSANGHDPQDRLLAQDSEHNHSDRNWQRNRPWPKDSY

As for `CC(C)N(C1CCN(CC(=O)N(c2ccc(F)cc2)c2ccc(F)cc2)CC1)S(=O)(=O)c1cccc(C(F)(F)F)c1` [Compound 84, N,N-Bis-(4-fluorophenyl)-2-{4-[isopropyl-(3-trifluoromethyl-benzenesulfonyl)amino]-piperidin-1-yl}-acetamide], the IC50 is 320 nM in assay [1] and above 20000 nM in assay [2].

In the case of `CC(C)N(C1CCN(C(=O)CCNc2ccc(F)c(F)c2)CC1)S(=O)(=O)c1cccc(C(F)(F)F)c1` [N-{1-[3-(3,4-difluoro-phenylamino)-propionyl]-piperidin-4-yl}-N-isopropyl-3-trifluoromethyl-benzenesulfonamide], the 50% inhibitory concentration (IC50) was 390 nM in assay [1] and above 20000 nM in assay [2].

With `Cc1ccccc1NC(=O)CN1CCC(N(C(C)C)S(=O)(=O)c2cccc(C(F)(F)F)c2)CC1` [Compound 42b, 2-{4-[Isopropyl-(3-trifluoromethylbenzenesulfonyl)amino]-piperidin-1-yl}-N-o-tolyl-acetamide], the values for the IC50 in assay [1] and in assay [2] were 460 nM and 3230 nM, respectively.

Consider `CC(C)N(C1CCN(C(=O)CCNc2ccccc2OC(F)(F)F)CC1)S(=O)(=O)c1cccc(C(F)(F)F)c1` [N-isopropyl-N-{1-[3-(2-trifluoromethoxy-phenylamino)-propionyl]-piperidin-4-yl}-3-trifluoromethyl-benzenesulfonamide], for which the half-inhibitory concentration (IC50) was 330 nM in assay [1] and above 20000 nM in assay [2].

`O=C(CN1CCC(N(C2CC2)S(=O)(=O)c2cccc(C(F)(F)F)c2)CC1)Nc1cc(F)cc(C(F)(F)F)c1` [Compound 73, 2-{4-[Cyclopropyl-(3-trifluoromethylbenzenesulfonyl)amino]-piperidin-1-yl}-N-(3-fluoro-5-trifluoromethylphenyl)-acetamide]: the concentration for half-maximal inhibition (IC50) in assay [1] is 610 nM; in assay [2] it was above 20000 nM.

With `CC(C)CC(O)C(=O)N1CCC(N(C(C)C)S(=O)(=O)c2cccc(C(F)(F)F)c2)CC1` (stereo not shown) [N-[1-(2-hydroxy-4-methyl-pentanoyl)-piperidin-4-yl]-N-isopropyl-3-trifluoromethyl-benzenesulfonamide], the results for the IC50 in assay [1] and in assay [2] were 950 nM and 5490 nM, respectively.

`CCOc1cc(F)ccc1NC(=O)CN1CCC(N(C2CC2)S(=O)(=O)c2cccc(C(F)(F)F)c2)CC1` [Compound 70, 2-{4-[Cyclopropyl-(3-trifluoromethylbenzenesulfonyl)amino]-piperidin-1-yl}-N-(2-ethoxy-4-fluorophenyl)-acetamide]: the IC50 in assay [1] is 920 nM; in assay [2], above 20000 nM.

For `O=C(Nc1ccc(F)cc1)C(=O)N1CCC(N(C2CC2)S(=O)(=O)c2cccc(C(F)(F)F)c2)CC1` [Compound 22, 2-{4-[Cyclopropyl-(3-trifluoromethylbenzenesulfonyl)amino]-piperidin-1-yl}-N-(4-fluorophenyl)-2-oxo-acetamide], the IC50 was 700 nM in assay [1] and above 20000 nM in assay [2].

As to `COc1ccccc1NCCC(=O)N1CCC(N(C(C)C)S(=O)(=O)c2cccc(C(F)(F)F)c2)CC1` [N-isopropyl-N-{1-[3-(2-methoxy-phenylamino)-propionyl]-piperidin-4-yl}-3-trifluoromethyl-benzenesulfonamide], the IC50 in assay [1] stood at 370 nM; in assay [2], 3800 nM.

As for `COc1ccccc1NC(=O)CCN1CCC(N(C(C)C)S(=O)(=O)c2cccc(C(F)(F)F)c2)CC1` [Compound 107b, 3-{4-[Isopropyl-(3-trifluoromethylbenzenesulfonyl)amino]-piperidin-1-yl}-N-(2-methoxyphenyl)-propionamide], the IC50 in assay [1] is 670 nM; in assay [2] it was above 20000 nM.

On to `CC(C)N(C1CCN(C(=O)CCNc2ccccc2F)CC1)S(=O)(=O)c1cccc(C(F)(F)F)c1` [N-{1-[3-(2-fluoro-phenylamino)-propionyl]-piperidin-4-yl}-N-isopropyl-3-trifluoromethyl-benzenesulfonamide], for which the results for the IC50 in assay [1] and in assay [2] were 550 nM and 9650 nM, respectively.

Take `Cc1cccc(NC(=O)CN2CCC(N(C(C)C)S(=O)(=O)c3cccc(C(F)(F)F)c3)CC2)c1` [Compound 42d, 2-{4-[Isopropyl-(3-trifluoromethylbenzenesulfonyl)amino]-piperidin-1-yl}-N-m-tolyl-acetamide]: the figures for the IC50 in assay [1] and in assay [2] were 450 nM and above 20000 nM, respectively.

For the compound `CC(C)N(C1CCN(CC(=O)Nc2ccc(OC(F)(F)F)cc2)CC1)S(=O)(=O)c1cccc(C(F)(F)F)c1` [Compound 42l, 2-{4-[Isopropyl-(3-trifluoromethylbenzenesulfonyl)amino]-piperidin-1-yl}-N-(4-trifluoromethoxyphenyl)-acetamide], the values for the IC50 in assay [1] and in assay [2] were 250 nM and above 20000 nM, respectively.

Turning to `CC(C)N(C1CCN(C(=O)CCNc2ccc(F)cc2)CC1)S(=O)(=O)c1cccc(C(F)(F)F)c1` [N-{1-[3-(4-fluoro-phenylamino)-propionyl]-piperidin-4-yl}-N-isopropyl-3-trifluoromethyl-benzenesulfonamide], the IC50 in assay [1] was found to be 530 nM; in assay [2], 3220 nM.

For `CC(C)N(C1CCN(CC(=O)Nc2ccc(C#N)cc2)CC1)S(=O)(=O)c1cccc(C(F)(F)F)c1` [Compound 42g, N-(4-Cyanophenyl)-2-{4-[isopropyl-(3-trifluoromethylbenzenesulfonyl)amino]-piperidin-1-yl}-acetamide], the IC50 was determined as 180 nM in assay [1] and 2510 nM in assay [2].

Consider `CC(C)N(C1CCN(CC(=O)N(C)c2ccc(F)cc2)CC1)S(=O)(=O)c1cccc(C(F)(F)F)c1` [Compound 42j, N-(4-Fluorophenyl)-2-{4-[isopropyl-(3-trifluoromethyl-benzenesulfonyl)amino]-piperidin-1-yl}-N-methyl-acetamide], for which the IC50 in assay [1] is 330 nM; in assay [2] it was above 20000 nM.

With `CC(C)N(C1CCN(CC(=O)NCc2ccc(F)cc2)CC1)S(=O)(=O)c1cccc(C(F)(F)F)c1` [Compound 42k, N-(4-Fluorobenzyl)-2-{4-[isopropyl-(3-trifluoromethylbenzenesulfonyl)amino]-piperidin-1-yl}-acetamide], the IC50 is 330 nM in assay [1] and 4160 nM in assay [2].

As to `CC(C)N(C1CCN(C(=O)CCNc2ccc(Cl)cc2)CC1)S(=O)(=O)c1cccc(C(F)(F)F)c1` [N-{1-[3-(4-chloro-phenylamino)-propionyl]-piperidin-4-yl}-N-isopropyl-3-trifluoromethyl-benzenesulfonamide], the 50% inhibitory concentration (IC50) is 930 nM in assay [1] and above 20000 nM in assay [2].

For `CCC(C(=O)N1CCC(N(C(C)C)S(=O)(=O)c2cccc(C(F)(F)F)c2)CC1)N(C)Cc1ccccc1` (stereo not shown) [Compound 96, N-{1-[2-(Benzyl-methyl-amino)butyryl]-piperidin-4-yl}-N-isopropyl-3-trifluoromethylbenzenesulfonamide], the half-inhibitory concentration (IC50) stood at 820 nM in assay [1] and 4410 nM in assay [2].

For the compound `O=C(Nc1cc(C(F)(F)F)cc(C(F)(F)F)c1)N1CCC(N(C2CC2)S(=O)(=O)c2cccc(C(F)(F)F)c2)CC1` [Compound 111, 4-[Cyclopropyl-(3-trifluoromethylbenzenesulfonyl)amino]-piperidine-1-carboxylic acid (3,5-bis-trifluoromethylphenyl)-amide], the half-inhibitory concentration (IC50) was 2320 nM in assay [1] and above 20000 nM in assay [2].

The values are drawn from patent US8791264B2 (Purdue Pharma L.P., priority 2006, dated 2014).
